Drawing on US6822100B2 (Bristol-Myers Squibb Company, priority 2001, dated 2004), this text covers Ki for 26 compounds.

Assay [1] addresses T1, human serotonin transporters (Homo sapiens, UniProt P31645).
T1 construct: expressed in transfected cells; host or cells: HEK-293 (HEK-hSERT), membrane homogenates
Nature of the assay: Serotonin Transporter Binding Assay. The conditions noted are these: HEK-hSERT cell membranes, 1 nM [3H]-citalopram, Cheng and Prusoff. As for the experimental part: HEK-293 cells that stably express human serotonin transporters (HEK-hSERT cells) were grown at 37° C. in 5% CO2 as a monolayer in medium consisting of EMEM supplemented with 10% fetal bovine serum and G418 sulfate (500 μg/ml). To prepare membranes for radioligand binding experiments, cells were rinsed twice with phosphate-buffered saline (138 mM NaCl, 4.1 mM KCl, 5.1 mM Na2PO4, 1.5 mM […], 11.1 mM glucose, pH 7.4). Cells were transferred from plates to polypropylene tubes (16×100 mm), centrifuged at 1,200×g for 5 min and were frozen at −80° C. until assay. Following centrifugation, pellets were resuspended by homogenization in buffer consisting of 50 mM Tris (pH 7.7 at 25° C.), 120 mM NaCl and 5 mM KCl and then centrifuged at 32,000×g for 10 min. Following centrifugation, supernatants were discarded and pellets were resuspended in buffer consisting of 50 mM Tris (pH 7.4 at 25° C.), 150 mM NaCl and 5 mM KCl. Membrane homogenates (200 μl/plate) were incubated with 1 nM [^3H]-citalopram (specific activity=85 Ci/mmol) and increasing concentrations of test compounds for 1 hr at 25° C. in a total volume of 250 μl. The assay buffer consisted of 50 mM Tris (pH 7.4 at 25° C.), 120 mM NaCl and 5 mM KCl (pH 7.4 with conc. HCl). Plates were incubated for 1 hr at 25° C., then filtered through 0.5% PEI treated Whatman GF/B filters using a Brandel cell harvester. Filters were washed three times with 3 ml of ice-cold tris wash buffer. Non-specific binding was defined with 10 μM fluoxetine. Amount of radioligand bound in the presence and absence of competitor was analyzed by plotting (−)log drug concentration versus the amount of radioligand specifically bound. The midpoint of the displacement curve (IC50, nM), signifies the potency. Ki values were calculated using the method of Cheng and Prusoff (1973).

In assay [2] the target is T2, recombinant human dopamine D2L receptors (Homo sapiens, UniProt P14416).
T2 construct: expressed in transfected cells; host or cells: HEK-293 (HEK-D2L), membrane homogenates
The assay can be described thus: Dopamine Binding Assay. The conditions noted are these: HEK-D2L cell membranes, 150 pM [3H]-spiperone, Cheng and Prusoff. On the procedure: HEK-293 cells that stably express recombinant human dopamine D2L receptors (HEK-D2L cells) were grown at 37° C. in 5% CO2 as a monolayer in medium consisting of EMEM supplemented with 10% fetal bovine serum and G418 sulfate (500 μg/ml). To prepare membranes for radioligand binding experiments, cells were rinsed twice with phosphate-buffered saline (138 mM NaCl, 4.1 mM KCl, 5.1 mM Na2PO4, 1.5 mM KH2PO2 11.1 mM glucose, pH 7.4), and incubated for 5-10 min. at 4° C. in hypotonic lysis buffer consisting of 10 mM Tris (pH 7.4) and 5 mM EDTA. Cells were transferred from plates to polypropylene tubes (16×100 mm), homogenized and centrifuged at 32,000×g for 20 min. Following centrifugation, pellets were resuspended by homogenization in buffer consisting of 50 mM Tris (pH 7.7 at 25° C.) and 1 mM EDTA. Homogenates were stored at −80° C. until needed. On the day of an experiment, homogenates were thawed then centrifuged at 32,000×g for 20 min. Following centrifugation, supernatants were discarded and pellets were resuspended in assay buffer consisting of 50 mM Tris (pH 7.4 at 25° C.), 1 mM EDTA and 6 mM MgCl2. Membrane homogenates (˜5 μg) were incubated with 150 pM [^3H]-spiperone (Amersham Life Science) and increasing concentrations of test compounds for 1.5 hr at 22° C. in a total volume of 400 μl. Reactions were stopped by addition of ice-cold assay buffer and filtration over glass fiber filters (Whatman GFB, pre-soaked in 0.05% polyethylenimine) using a microtitre format Brandel cell harvester. Filters were washed with 3 ml of ice-cold assay buffer. Non-specific binding was defined with 2 μM (+)butaclamol. Ki values were calculated using the method of Cheng and Prusoff (1973). Protein concentrations were determined by the method of Bradford (1976) with BSA as a standard.

Each structure is given as a SMILES string. Where two headings read alike, the source gives them in different places.

T1 sequence (P31645 whole entry): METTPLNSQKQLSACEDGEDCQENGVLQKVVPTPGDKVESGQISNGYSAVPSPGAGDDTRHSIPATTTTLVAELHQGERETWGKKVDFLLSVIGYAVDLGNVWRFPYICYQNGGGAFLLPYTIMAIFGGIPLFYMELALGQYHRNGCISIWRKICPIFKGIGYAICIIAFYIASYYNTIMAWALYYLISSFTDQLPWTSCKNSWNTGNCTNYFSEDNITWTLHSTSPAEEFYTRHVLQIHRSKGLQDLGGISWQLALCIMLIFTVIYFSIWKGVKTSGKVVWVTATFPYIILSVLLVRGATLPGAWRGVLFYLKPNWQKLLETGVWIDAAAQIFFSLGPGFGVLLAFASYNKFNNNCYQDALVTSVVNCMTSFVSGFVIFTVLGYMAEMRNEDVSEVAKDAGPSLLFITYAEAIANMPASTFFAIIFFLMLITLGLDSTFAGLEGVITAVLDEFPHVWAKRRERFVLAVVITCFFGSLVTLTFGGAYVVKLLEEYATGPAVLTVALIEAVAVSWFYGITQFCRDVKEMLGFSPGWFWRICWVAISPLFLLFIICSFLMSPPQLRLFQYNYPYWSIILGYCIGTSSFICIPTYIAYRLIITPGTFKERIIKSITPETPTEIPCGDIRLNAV
T2 sequence (P14416 whole entry): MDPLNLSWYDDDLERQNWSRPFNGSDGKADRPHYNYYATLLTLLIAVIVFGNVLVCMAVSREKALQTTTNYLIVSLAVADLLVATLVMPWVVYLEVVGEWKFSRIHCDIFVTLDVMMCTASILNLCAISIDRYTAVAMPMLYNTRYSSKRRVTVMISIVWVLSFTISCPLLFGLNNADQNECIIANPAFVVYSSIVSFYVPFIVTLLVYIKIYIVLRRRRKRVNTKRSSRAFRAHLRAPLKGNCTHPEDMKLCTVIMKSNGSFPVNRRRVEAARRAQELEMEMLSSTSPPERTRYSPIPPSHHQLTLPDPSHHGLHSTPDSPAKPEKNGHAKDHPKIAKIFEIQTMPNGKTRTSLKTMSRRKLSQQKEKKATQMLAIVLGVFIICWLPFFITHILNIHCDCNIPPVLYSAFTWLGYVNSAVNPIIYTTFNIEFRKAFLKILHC

What is called Ki is a measure of affinity in units of concentration, obtained from inhibition or displacement. In the case of `CCOC(=O)NCCN(C)C[C@@H]1C[C@H]1c1c[nH]c2ccc(C#N)cc12` (relative stereo) [Example 87, trans-2-[5-Cyanoindol-3-yl]-1-[N,N-methyl-2-amino(ethylcarbamoyl)ethylaminomethyl]-cyclopropane], the results for the Ki in assay [1] (read-out: SERT Ki) and in assay [2] were 10 to 100 nM and 100 to 1000 nM, respectively.

Regarding `CN(C)CC1CC1c1c[nH]c2ccc(C#N)cc12` (single isomer, unassigned) [Example 129a, Cis-2-[5-Cyanoindol-3-yl]-1-(N,N-dimethylaminomethyl)cyclopropane], the results for the Ki in assay [1] (SERT Ki (nM)) and in assay [2] were 10 to 100 nM and greater than 1000 nM, respectively.

Turning to `Fc1ccc2[nH]cc(C3CC3CN3CCOCC3)c2c1` (stereo not shown) [Example 141], the Ki in assay [1] (read-out: SERT Ki) was 10 to 100 nM; in assay [2], 100 to 1000 nM.

Take `CNCCCC1CC1c1c[nH]c2ccc(C#N)cc12` (stereo not drawn) [Example 175, Trans-2-[5-cyanoindol-3-yl]-1-(3-(N-methylamino)propyl)cyclopropane]: the figures for the Ki in assay [1] (read-out: SERT Ki) and in assay [2] were 1 to 10 nM and 100 to 1000 nM, respectively.

In the case of `CCCOC(=O)NCCN(C)C[C@@H]1C[C@H]1c1c[nH]c2ccc(F)cc12` (relative stereo) [Example 102], the results for the Ki in assay [1] (read-out: SERT Ki) and in assay [2] were 1 to 10 nM and 100 to 1000 nM, respectively.

`CN(C)CC1CC1Cc1ccc2[nH]cc(C#N)c2c1` (stereo not shown) [Example 153, 5-(2-Dimethylaminomethyl-cyclopropylmethyl)-1H-indole-3-carbonitrile]: the figures for the Ki in assay [1] (read-out: SERT Ki) and in assay [2] were 10 to 100 nM and greater than 1000 nM, respectively.

In the case of `CNC(C)C1CC1c1c[nH]c2ccc(C#N)cc12` (racemic) [Example 125, trans-3-[2-(1-Methylamino-ethyl)-cyclopropyl]-1H-indole-5-carbonitrile], the Ki in assay [1] (read-out: SERT Ki) was 1 to 10 nM; in assay [2], 100 to 1000 nM.

For the compound `CN(C)CC1CC1c1c[nH]c2cc(F)c(F)cc12` (stereo not shown) [Example 152, [2-(5,6-Difluoro-1H-indol-3-yl)-cyclopropylmethyl]-dimethyl-amine], the Ki in assay [1] (SERT Ki (nM)) was 1 to 10 nM; in assay [2], greater than 1000 nM.

`Fc1ccc2[nH]cc(C3CC3CNCc3ccccn3)c2c1` (stereo not drawn) [Example 56, trans-2-[5-Fluoroindol-3-yl]-1-[N-(2-pyridylmethyl)aminomethyl]-cyclopropane]: the Ki in assay [1] (read-out: SERT Ki) was in the range of 10 to 100 nM; in assay [2], 100 to 1000 nM.

Regarding `COc1ccc(CCNC[C@@H]2C[C@H]2c2c[nH]c3ccc(C#N)cc23)cc1` (relative stereo) [Example 43], the Ki in assay [1] (read-out: SERT Ki) lay within 1 to 10 nM; in assay [2], 10 to 100 nM.

For `CCCOC(=O)NCCCN(C)C[C@@H]1C[C@H]1c1c[nH]c2ccc(C#N)cc12` (relative stereo) [Example 91, trans-2-[5-Cyanoindol-3-yl]-1-[N,N-methyl-2-amino(propylcarbamoyl)propylaminomethyl]-cyclopropane], the values for the Ki in assay [1] (read-out: SERT Ki) and in assay [2] were 1 to 10 nM and 10 to 100 nM, respectively.

Regarding `CCOC(=O)NCCN(CC)C[C@@H]1C[C@H]1c1c[nH]c2ccc(C#N)cc12` (relative stereo) [Example 94, trans-2-[5-Cyanoindol-3-yl]-1-[N,N-ethyl-2-amino(ethylcarbamoyl)ethylaminomethyl]-cyclopropane], the Ki was less than 1 nM in assay [1] (read-out: SERT Ki) and greater than 1000 nM in assay [2].

Take `CN(CCc1ccccc1)C[C@@H]1C[C@H]1c1c[nH]c2ccc(F)cc12` (relative stereo) [Example 78, trans-2-[5-Fluoroindol-3-yl]-1-[N,N-methyl-phenylethylaminomethyl]-cyclopropane]: the Ki in assay [1] (read-out: SERT Ki) is 1 to 10 nM; in assay [2], 100 to 1000 nM.

With `CCOC(=O)NCCCN(C)C[C@@H]1C[C@H]1c1c[nH]c2ccc(C#N)cc12` (relative stereo) [Example 90, trans-2-[5-Cyanoindol-3-yl]-1-[N,N-methyl-2-amino(ethylcarbamoyl)propylaminomethyl]-cyclopropane], the Ki in assay [1] (read-out: SERT Ki) is 1 to 10 nM; in assay [2] it was 100 to 1000 nM.

On to `Fc1ccc2[nH]cc(C3CC3CNCCc3c[nH]cn3)c2c1` (stereo not drawn) [Example 64, trans-2-[5-Fluoroindol-3-yl]-1-[N-2-(4-imidazolyl)ethylaminomethyl]-cyclopropane], for which the Ki in assay [1] (read-out: SERT Ki) and in assay [2] was 10 to 100 nM each time.

Take `CN(C)CC1CC1c1csc2ccccc12` (single isomer, unassigned; (+)) [Example 190B, (+)-(2-Benzo[b]thiophen-3-yl-cyclopropylmethyl)-dimethyl-amine]: the Ki in assay [1] (read-out: SERT Ki) is 10 to 100 nM; in assay [2], greater than 1000 nM.

As for `N#Cc1ccc2[nH]cc([C@@H]3C[C@H]3CN3CCc4ccccc4C3)c2c1` (relative stereo) [Example 37, trans-2-[5-Cyanoindol-3-yl]-1-[1,2,3,4-tetrahydro-1H-isoquinolin-2-yl-methyl]-cyclopropane], the Ki in assay [1] (read-out: SERT Ki) and in assay [2] was 10 to 100 nM in each case.

In the case of `N#Cc1ccc2[nH]cc(C3CC3CN3CCCC3)c2c1` (stereo not drawn) [Example 46, trans-2-[5-Cyanoindol-3-yl]-1-[pyrrolidin-1-yl-methyl]-cyclopropane], the Ki in assay [1] (read-out: SERT Ki) lay in the range of 1 to 10 nM; in assay [2], 100 to 1000 nM.

For `CNCC1CC1c1c[nH]c2ccc(F)cc12` (stereo not drawn) [Example 181, cis-1-(N-methylaminomethyl)-2-[5-fluoroindol-3-yl]-cyclopropane], the Ki in assay [1] (read-out: SERT Ki) was in the range of 10 to 100 nM; in assay [2], 100 to 1000 nM.

Take `CN(C)C[C@@H]1C[C@H]1Cc1c[nH]c2ccc(F)cc12` (single isomer, unassigned) [Example 148, (+)-[2-(5-Fluoro-1H-indol-3-ylmethyl)-cyclopropylmethyl]-dimethylamine]: the Ki in assay [1] (read-out: SERT Ki) is 10 to 100 nM; in assay [2], 100 to 1000 nM.

Take `N#Cc1ccc2[nH]cc(C3CC3CNCC3CC3)c2c1` (stereo not drawn) [Example 28, trans-2-[5-Cyanoindol-3-yl]-1-[N-cyclopropylmethylaminomethyl]-cyclopropane]: the Ki in assay [1] (SERT Ki (nM)) is 10 to 100 nM; in assay [2], greater than 1000 nM.

`CNC[C@H]1C[C@@H]1c1c[nH]c2cc(C(F)(F)F)ccc12` (racemic) [Example 155, Methyl-[2-(6-trifluoromethyl-1H-indol-3-yl)-cyclopropylmethyl]-amine]: the Ki is 10 to 100 nM in assay [1] (SERT Ki (nM)) and greater than 1000 nM in assay [2].

Consider `Fc1ccc2[nH]cc(C3CC3CN3CCN(Cc4ccccc4)CC3)c2c1` (stereo not drawn) [Example 75, trans-1-[4-Benzyl-piperazin-1-yl-methyl]-2-[5-fluoroindol-3-yl]-cyclopropane], for which the Ki in assay [1] (read-out: SERT Ki) and in assay [2] was 10 to 100 nM throughout.

Turning to `CCN(C)C[C@H]1C[C@@H]1c1c[nH]c2cc(C#N)ccc12` (racemic) [Example 161, 3-{2-[(Ethyl-methyl-amino)-methyl]-cyclopropyl}-1H-indole-6-carbonitrile], the Ki in assay [1] (read-out: SERT Ki) was in the range of 100 to 1000 nM.

Consider `CN(C)CC1CC1c1ccc2[nH]cc(Br)c2c1` (stereo not shown) [Example 150, N,N-dimethyl-2-(3-bromoindol-5-yl)cycloprop-1-yl methylamine], for which, in assay [1] (read-out: SERT Ki), the Ki is 10 to 100 nM.

Turning to `CCNC[C@H]1C[C@@H]1c1c[nH]c2cc(C#N)ccc12` (racemic) [Example 159, 3-(2-Ethylaminomethyl-cyclopropyl)-1H-indole-6-carbonitrile], the Ki in assay [1] (read-out: SERT Ki) is 100 to 1000 nM.
